Measurements from ChEMBL document CHEMBL5344473, “Inhibition of N-type calcium channels by phenoxyaniline and sulfonamide analogues” (RSC Med Chem, 2024).

System: not listed separately
Assay: Cytotoxicity against African green monkey COS7 cells assessed as reduction in cell viability measured after 20 hrs by CellTiter-Blue reagent based fluorescence analysis
Conditions: chlorocebus aethiops
In the case of `CN(C)CCCOc1ccc(C(=O)Nc2ccccc2Oc2ccccc2)cc1`, the CC50 at 20 h is reported as > 100 µM.

Biological target: Voltage-dependent T-type calcium channel subunit alpha-1H (Homo sapiens, UniProt O95180)
Sequence (O95180 whole entry): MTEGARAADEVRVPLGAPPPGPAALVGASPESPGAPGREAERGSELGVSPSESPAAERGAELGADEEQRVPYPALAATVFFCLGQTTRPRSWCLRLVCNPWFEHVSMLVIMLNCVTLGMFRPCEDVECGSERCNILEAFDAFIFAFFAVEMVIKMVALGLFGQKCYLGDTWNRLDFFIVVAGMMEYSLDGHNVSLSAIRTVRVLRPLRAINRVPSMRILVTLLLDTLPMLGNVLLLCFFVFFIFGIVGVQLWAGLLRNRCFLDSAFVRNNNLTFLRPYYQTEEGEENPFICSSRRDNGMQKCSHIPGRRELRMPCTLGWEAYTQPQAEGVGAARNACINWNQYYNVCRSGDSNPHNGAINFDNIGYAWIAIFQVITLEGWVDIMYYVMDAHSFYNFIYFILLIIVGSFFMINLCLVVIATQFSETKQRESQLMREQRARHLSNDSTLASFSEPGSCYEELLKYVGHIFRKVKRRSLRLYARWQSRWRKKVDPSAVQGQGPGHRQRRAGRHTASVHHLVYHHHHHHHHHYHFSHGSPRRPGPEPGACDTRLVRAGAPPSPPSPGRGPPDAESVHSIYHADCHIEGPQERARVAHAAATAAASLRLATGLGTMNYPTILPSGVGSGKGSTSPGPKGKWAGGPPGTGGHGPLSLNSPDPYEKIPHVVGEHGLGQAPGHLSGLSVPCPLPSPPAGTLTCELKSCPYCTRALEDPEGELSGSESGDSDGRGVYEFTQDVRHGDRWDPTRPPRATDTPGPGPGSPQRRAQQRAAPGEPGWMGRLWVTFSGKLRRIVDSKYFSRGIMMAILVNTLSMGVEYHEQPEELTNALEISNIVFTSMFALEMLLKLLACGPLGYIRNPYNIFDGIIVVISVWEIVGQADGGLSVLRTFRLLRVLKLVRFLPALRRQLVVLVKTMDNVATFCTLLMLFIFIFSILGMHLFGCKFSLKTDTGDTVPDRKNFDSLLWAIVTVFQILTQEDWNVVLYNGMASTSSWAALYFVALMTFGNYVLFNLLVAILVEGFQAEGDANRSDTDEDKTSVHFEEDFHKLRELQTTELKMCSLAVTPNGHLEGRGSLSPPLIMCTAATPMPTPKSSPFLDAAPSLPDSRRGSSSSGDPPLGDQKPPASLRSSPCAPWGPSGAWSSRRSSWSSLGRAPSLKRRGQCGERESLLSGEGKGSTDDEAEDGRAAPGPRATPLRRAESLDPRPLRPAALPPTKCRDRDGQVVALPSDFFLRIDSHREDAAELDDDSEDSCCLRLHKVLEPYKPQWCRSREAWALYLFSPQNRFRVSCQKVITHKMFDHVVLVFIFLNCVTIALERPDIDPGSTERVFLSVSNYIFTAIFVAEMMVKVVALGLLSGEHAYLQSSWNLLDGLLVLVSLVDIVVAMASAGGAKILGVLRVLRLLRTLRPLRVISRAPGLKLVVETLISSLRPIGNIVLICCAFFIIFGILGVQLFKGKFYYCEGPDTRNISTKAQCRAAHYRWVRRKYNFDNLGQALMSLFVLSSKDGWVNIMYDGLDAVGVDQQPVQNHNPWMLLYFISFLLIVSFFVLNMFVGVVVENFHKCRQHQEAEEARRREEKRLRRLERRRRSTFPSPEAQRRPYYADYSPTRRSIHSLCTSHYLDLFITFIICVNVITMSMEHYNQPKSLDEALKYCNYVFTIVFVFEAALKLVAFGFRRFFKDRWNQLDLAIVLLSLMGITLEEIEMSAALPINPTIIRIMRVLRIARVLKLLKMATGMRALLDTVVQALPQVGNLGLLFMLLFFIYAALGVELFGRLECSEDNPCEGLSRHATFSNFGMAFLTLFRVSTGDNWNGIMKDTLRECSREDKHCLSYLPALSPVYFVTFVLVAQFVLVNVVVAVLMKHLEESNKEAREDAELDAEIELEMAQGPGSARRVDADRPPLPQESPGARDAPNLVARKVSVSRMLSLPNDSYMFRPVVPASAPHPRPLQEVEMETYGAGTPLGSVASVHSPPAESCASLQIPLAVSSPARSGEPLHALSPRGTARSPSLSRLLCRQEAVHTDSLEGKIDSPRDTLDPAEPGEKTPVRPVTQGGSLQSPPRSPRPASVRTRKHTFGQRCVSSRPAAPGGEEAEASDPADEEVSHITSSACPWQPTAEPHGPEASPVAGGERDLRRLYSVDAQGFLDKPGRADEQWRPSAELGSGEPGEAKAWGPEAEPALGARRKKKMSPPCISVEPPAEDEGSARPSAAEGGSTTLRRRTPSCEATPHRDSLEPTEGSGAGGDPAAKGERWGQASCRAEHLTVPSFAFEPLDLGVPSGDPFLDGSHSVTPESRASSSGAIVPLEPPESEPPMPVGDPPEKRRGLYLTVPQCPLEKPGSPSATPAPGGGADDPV
Assay: Inhibition of human recombinant Cav3.2 alpha1 subunit expressed in HEK293T cells assessed as inhibition of calcium influx measured for 300 secs by FLIPR assay
Assay type: cell-based
Conditions: not given
Molecule `FC(F)(F)c1ccc(Oc2ccccc2NCc2ccc(OCCCN3CCCC3)cc2)cc1` has an IC50 of 110 µM. In the case of `FC(F)(F)c1ccc(Oc2ccc(NCc3ccc(OCCCN4CCCC4)cc3)cc2)cc1`, the IC50 is reported as 182 µM. Molecule `Fc1ccc(Oc2ccc(NCc3ccc(OCCCN4CCCC4)cc3)cc2)cc1` has an IC50 of 208 µM. Work on `c1ccc(Oc2cccc(NCc3ccc(OCCCN4CCCCC4)cc3)c2)cc1` yielded an IC50 of 200 µM. With `N#Cc1ccc(Oc2ccc(NCc3ccc(OCCCN4CCCC4)cc3)cc2)cc1` the IC50 was 146 µM. Work on `c1ccc(Oc2cccc(NCc3ccc(OCCCn4ccnc4)cc3)c2)cc1` yielded an IC50 of 258 µM. `Fc1ccc(Oc2ccccc2NCc2ccc(OCCCn3ccnc3)cc2)cc1` gave an IC50 of 196 µM. Molecule `CN(C)CCCOc1ccc(S(=O)(=O)Nc2cccc(Oc3ccccc3)c2)cc1` has an IC50 of 142 µM. For `CNCCCOc1ccc(CNc2ccccc2Oc2ccc(C(F)(F)F)cc2)cc1`, the IC50 was 204 µM. Molecule `N#Cc1ccc(Oc2ccc(NCc3ccc(OCCCN4CCCCC4)cc3)cc2)cc1` has an IC50 of 22 µM. `Fc1ccc(Oc2cccc(NCc3ccc(OCCCN4CCCCC4)cc3)c2)cc1` showed an IC50 of 292 µM. Work on `c1ccc(Oc2ccc(NCc3ccc(OCCCN4CCCC4)cc3)cc2)cc1` yielded an IC50 of 201 µM. In the case of `N#Cc1ccc(Oc2ccc(NCc3ccc(OCCCn4ccnc4)cc3)cc2)cc1`, the IC50 is reported as 371 µM. Molecule `CN(C)CCCOc1ccc(CNc2ccc(Oc3ccc(F)cc3)cc2)cc1` has an IC50 of 227 µM. `Fc1ccc(Oc2ccc(NCc3ccc(OCCCn4ccnc4)cc3)cc2)cc1` showed an IC50 of 337 µM.

System: not listed separately
Assay: in vitro
Conditions: Sprague-Dawley, rat, plasma
In the case of `CN(C)CCCOc1ccc(C(=O)Nc2ccccc2Oc2ccc(F)cc2)cc1`, the half-life at 150 µM is reported as ~1.5 h. For `FC(F)(F)c1ccc(Oc2ccc(NCc3ccc(OCCCN4CCCC4)cc3)cc2)cc1`, the half-life at 150 µM was > 60 h. In the case of `Fc1ccc(Oc2ccc(NCc3ccc(OCCCN4CCCC4)cc3)cc2)cc1`, the half-life at 150 µM is reported as > 60 h. For `c1ccc(Oc2cccc(NCc3ccc(OCCCN4CCCCC4)cc3)c2)cc1`, the half-life at 150 µM was > 60 h. In the case of `N#Cc1ccc(Oc2ccc(NCc3ccc(OCCCN4CCCC4)cc3)cc2)cc1`, the half-life at 150 µM is reported as > 60 h. For `c1ccc(Oc2cccc(NCc3ccc(OCCCn4ccnc4)cc3)c2)cc1`, the half-life at 150 µM was > 60 h. For `Fc1ccc(Oc2ccccc2NCc2ccc(OCCCn3ccnc3)cc2)cc1`, the half-life at 150 µM was > 60 h. With `CN(C)CCCOc1ccc(S(=O)(=O)Nc2cccc(Oc3ccccc3)c2)cc1` the half-life at 150 µM was > 60 h. With `CNCCCOc1ccc(CNc2ccccc2Oc2ccc(C(F)(F)F)cc2)cc1` the half-life at 150 µM was > 60 h. For `N#Cc1ccc(Oc2ccc(NCc3ccc(OCCCN4CCCCC4)cc3)cc2)cc1`, the half-life at 150 µM was > 60 h. In the case of `Fc1ccc(Oc2cccc(NCc3ccc(OCCCN4CCCCC4)cc3)c2)cc1`, the half-life at 150 µM is reported as > 60 h. In the case of `c1ccc(Oc2ccc(NCc3ccc(OCCCN4CCCC4)cc3)cc2)cc1`, the half-life at 150 µM is reported as > 60 h. In the case of `N#Cc1ccc(Oc2ccc(NCc3ccc(OCCCn4ccnc4)cc3)cc2)cc1`, the half-life at 150 µM is reported as > 60 h. For `CN(C)CCCOc1ccc(CNc2ccc(Oc3ccc(F)cc3)cc2)cc1`, the half-life at 150 µM was > 60 h. In the case of `Fc1ccc(Oc2ccc(NCc3ccc(OCCCn4ccnc4)cc3)cc2)cc1`, the half-life at 150 µM is reported as > 60 h.

Biological target: Voltage-dependent N-type calcium channel subunit alpha-1B (Homo sapiens, UniProt Q00975)
Sequence (Q00975 whole entry): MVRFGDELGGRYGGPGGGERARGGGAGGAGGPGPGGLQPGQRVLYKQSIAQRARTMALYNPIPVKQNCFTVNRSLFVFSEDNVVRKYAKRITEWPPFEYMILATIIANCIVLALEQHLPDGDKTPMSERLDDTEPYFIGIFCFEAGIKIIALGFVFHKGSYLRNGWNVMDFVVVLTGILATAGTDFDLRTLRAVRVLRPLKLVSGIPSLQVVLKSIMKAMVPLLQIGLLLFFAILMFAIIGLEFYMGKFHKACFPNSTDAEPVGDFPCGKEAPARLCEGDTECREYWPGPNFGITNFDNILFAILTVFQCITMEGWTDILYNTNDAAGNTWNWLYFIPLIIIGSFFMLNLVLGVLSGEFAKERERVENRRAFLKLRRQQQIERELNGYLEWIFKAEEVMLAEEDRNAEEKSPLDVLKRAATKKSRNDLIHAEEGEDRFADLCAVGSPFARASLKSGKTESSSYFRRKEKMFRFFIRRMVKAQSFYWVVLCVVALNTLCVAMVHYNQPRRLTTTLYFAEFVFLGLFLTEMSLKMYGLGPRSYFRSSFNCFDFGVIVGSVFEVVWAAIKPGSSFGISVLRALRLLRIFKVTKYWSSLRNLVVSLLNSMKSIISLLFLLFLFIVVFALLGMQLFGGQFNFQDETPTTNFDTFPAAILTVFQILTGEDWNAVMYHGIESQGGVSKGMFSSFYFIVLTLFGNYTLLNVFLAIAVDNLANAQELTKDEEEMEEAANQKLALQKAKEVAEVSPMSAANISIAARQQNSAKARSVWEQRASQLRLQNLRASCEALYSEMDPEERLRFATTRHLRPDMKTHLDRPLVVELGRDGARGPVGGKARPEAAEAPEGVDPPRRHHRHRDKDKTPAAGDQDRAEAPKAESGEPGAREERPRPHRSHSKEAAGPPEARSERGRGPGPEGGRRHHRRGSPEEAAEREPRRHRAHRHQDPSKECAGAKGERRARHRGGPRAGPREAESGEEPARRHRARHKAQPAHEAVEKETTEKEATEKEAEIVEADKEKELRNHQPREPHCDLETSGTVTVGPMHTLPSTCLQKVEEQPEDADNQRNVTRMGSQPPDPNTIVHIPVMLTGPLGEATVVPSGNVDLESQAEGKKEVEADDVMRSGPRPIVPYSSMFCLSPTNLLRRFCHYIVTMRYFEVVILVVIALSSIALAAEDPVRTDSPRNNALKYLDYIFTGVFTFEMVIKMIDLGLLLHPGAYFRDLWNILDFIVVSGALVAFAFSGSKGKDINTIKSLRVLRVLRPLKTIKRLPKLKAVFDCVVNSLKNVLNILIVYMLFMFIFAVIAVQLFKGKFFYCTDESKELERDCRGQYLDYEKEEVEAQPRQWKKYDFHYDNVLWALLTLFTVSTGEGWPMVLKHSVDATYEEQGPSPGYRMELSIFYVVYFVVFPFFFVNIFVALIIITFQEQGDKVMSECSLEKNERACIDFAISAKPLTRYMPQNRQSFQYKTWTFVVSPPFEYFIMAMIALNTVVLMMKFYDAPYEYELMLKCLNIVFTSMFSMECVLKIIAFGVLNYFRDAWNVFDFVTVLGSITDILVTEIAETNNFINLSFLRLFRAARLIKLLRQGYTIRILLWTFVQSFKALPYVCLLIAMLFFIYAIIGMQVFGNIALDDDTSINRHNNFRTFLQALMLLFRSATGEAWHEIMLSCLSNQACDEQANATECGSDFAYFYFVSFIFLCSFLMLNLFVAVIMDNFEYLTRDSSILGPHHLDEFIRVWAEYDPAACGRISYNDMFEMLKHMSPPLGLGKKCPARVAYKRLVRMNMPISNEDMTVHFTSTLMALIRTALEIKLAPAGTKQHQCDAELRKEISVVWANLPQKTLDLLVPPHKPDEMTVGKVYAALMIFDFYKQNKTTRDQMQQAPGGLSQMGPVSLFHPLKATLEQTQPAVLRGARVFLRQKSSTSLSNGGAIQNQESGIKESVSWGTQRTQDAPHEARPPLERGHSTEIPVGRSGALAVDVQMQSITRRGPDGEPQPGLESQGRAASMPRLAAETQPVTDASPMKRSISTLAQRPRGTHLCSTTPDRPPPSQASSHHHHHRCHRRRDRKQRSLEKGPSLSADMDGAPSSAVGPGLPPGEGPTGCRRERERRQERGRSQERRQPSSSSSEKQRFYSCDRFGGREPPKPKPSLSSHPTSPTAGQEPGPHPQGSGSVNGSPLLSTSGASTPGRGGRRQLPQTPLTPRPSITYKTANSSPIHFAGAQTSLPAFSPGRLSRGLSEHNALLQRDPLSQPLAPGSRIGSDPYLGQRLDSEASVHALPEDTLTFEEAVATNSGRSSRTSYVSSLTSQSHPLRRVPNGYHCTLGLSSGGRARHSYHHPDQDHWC
Assay: Inhibition of Cav2.2 in human SH-SY5Y cells assessed as inhibition of calcium influx measured for 300 secs in presence of Cav1 blocker, nifedipine by FLIPR assay
Assay type: cell-based
Conditions: not given
In the case of `CC(C)[C@H]1c2ccc(F)cc2CC[C@@]1(CCN(C)CCCc1nc2ccccc2[nH]1)OC(=O)C1CC1`, the IC50 is reported as 24.3 µM. With `FC(F)(F)c1ccc(Oc2ccccc2NCc2ccc(OCCCN3CCCC3)cc2)cc1` the IC50 was 51 µM. `FC(F)(F)c1ccc(Oc2ccc(NCc3ccc(OCCCN4CCCC4)cc3)cc2)cc1` showed an IC50 of 50 µM. `Fc1ccc(Oc2ccc(NCc3ccc(OCCCN4CCCC4)cc3)cc2)cc1` showed an IC50 of 48 µM. `c1ccc(Oc2cccc(NCc3ccc(OCCCN4CCCCC4)cc3)c2)cc1` showed an IC50 of 63 µM. Work on `N#Cc1ccc(Oc2ccc(NCc3ccc(OCCCN4CCCC4)cc3)cc2)cc1` yielded an IC50 of 28 µM. Molecule `c1ccc(Oc2cccc(NCc3ccc(OCCCn4ccnc4)cc3)c2)cc1` has an IC50 of 68 µM. Molecule `Fc1ccc(Oc2ccccc2NCc2ccc(OCCCn3ccnc3)cc2)cc1` has an IC50 of 33 µM. With `CN(C)CCCOc1ccc(S(=O)(=O)Nc2cccc(Oc3ccccc3)c2)cc1` the IC50 was 10 µM. `CNCCCOc1ccc(CNc2ccccc2Oc2ccc(C(F)(F)F)cc2)cc1` gave an IC50 of 58 µM. For `N#Cc1ccc(Oc2ccc(NCc3ccc(OCCCN4CCCCC4)cc3)cc2)cc1`, the IC50 was 19 µM. Molecule `Fc1ccc(Oc2cccc(NCc3ccc(OCCCN4CCCCC4)cc3)c2)cc1` has an IC50 of 20 µM. For `c1ccc(Oc2ccc(NCc3ccc(OCCCN4CCCC4)cc3)cc2)cc1`, the IC50 was 36 µM. Molecule `N#Cc1ccc(Oc2ccc(NCc3ccc(OCCCn4ccnc4)cc3)cc2)cc1` has an IC50 of 75 µM. With `CN(C)CCCOc1ccc(CNc2ccc(Oc3ccc(F)cc3)cc2)cc1` the IC50 was 39 µM. With `Fc1ccc(Oc2ccc(NCc3ccc(OCCCn4ccnc4)cc3)cc2)cc1` the IC50 was 68 µM.
